Read-outs that look alike come from different tables or passages of the source.
Experiments:
[1] = test system: MV-4-11 cells; assay: AML cell viability assay (RealTime-Glo); assay type: cell-based; conditions: Homo sapiens, read-out: Cell viability classification
[2] = molecular target: CK1α (Homo sapiens, UniProt P48729+Q96SW2); assay: CK1α degradation, flow cytometry in MV4-11 cells; assay type: cell-based; design: CK1α levels were determined in MV-4-11 cells using Jess (Protein Simple); host or cells: MV-4-11; conditions: % reduction of CK1α compared to DMSO, MV4-11 cells at 316 nM for 16 hours, read-out: CK1α degradation classification
Procedure: MV-4-11 cells were obtained from ATCC and grown in IMDM supplemented with 10% FBS. The cells were maintained at 37° C. under 5% CO2.
Compounds of the present disclosure were added to cells (final DMSO concentration of 0.5%) and incubated for 16 hours. CK1α level was determined in MV4-11 cells using flow cytometry (Luminex, Guava EasyCyte Plus). Briefly, cells were prepared with sequential 10% formalin and 70% methanol fixation. […] GuavaSoft Incyte software was used to analyse the flow cytometry data. Protein levels relative to DMSO are calculated for CK1α.
The efficacy of CK1α degradation of other part of compounds of the present disclosure was determined by treating MV4-11 cells at […] (Final DMSO concentration of 0.5%) for 16 hours. Protein levels relative to DMSO are calculated for CK1α.
Protein levels relative to DMSO are calculated for CK1α.

[3] = MV4-11, IC50 class, MV-4-11 cells, RealTime-Glo after 44 hrs of treatment (TABLE 3)

Chain of CK1α (P48729 whole entry): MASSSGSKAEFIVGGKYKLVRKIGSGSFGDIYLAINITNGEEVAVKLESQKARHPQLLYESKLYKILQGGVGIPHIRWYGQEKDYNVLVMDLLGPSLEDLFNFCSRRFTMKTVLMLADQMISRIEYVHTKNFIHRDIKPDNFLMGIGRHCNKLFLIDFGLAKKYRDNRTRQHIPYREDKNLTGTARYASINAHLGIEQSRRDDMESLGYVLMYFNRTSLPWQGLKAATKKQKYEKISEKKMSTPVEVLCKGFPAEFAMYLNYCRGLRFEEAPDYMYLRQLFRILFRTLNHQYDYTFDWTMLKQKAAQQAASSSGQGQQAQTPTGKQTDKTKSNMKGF
Chain of CK1α (Q96SW2 whole entry): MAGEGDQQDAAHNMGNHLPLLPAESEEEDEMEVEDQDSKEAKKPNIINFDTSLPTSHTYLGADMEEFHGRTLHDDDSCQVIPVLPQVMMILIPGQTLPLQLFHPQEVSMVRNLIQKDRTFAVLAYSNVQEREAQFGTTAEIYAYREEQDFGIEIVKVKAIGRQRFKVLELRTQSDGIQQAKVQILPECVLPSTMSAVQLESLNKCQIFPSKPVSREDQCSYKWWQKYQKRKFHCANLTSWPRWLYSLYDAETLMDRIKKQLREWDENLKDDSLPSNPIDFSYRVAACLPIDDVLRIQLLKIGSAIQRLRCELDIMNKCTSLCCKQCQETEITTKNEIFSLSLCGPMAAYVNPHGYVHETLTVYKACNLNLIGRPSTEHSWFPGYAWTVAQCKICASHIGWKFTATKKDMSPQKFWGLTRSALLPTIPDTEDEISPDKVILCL
Chain of CK1α (Q16531 whole entry partner): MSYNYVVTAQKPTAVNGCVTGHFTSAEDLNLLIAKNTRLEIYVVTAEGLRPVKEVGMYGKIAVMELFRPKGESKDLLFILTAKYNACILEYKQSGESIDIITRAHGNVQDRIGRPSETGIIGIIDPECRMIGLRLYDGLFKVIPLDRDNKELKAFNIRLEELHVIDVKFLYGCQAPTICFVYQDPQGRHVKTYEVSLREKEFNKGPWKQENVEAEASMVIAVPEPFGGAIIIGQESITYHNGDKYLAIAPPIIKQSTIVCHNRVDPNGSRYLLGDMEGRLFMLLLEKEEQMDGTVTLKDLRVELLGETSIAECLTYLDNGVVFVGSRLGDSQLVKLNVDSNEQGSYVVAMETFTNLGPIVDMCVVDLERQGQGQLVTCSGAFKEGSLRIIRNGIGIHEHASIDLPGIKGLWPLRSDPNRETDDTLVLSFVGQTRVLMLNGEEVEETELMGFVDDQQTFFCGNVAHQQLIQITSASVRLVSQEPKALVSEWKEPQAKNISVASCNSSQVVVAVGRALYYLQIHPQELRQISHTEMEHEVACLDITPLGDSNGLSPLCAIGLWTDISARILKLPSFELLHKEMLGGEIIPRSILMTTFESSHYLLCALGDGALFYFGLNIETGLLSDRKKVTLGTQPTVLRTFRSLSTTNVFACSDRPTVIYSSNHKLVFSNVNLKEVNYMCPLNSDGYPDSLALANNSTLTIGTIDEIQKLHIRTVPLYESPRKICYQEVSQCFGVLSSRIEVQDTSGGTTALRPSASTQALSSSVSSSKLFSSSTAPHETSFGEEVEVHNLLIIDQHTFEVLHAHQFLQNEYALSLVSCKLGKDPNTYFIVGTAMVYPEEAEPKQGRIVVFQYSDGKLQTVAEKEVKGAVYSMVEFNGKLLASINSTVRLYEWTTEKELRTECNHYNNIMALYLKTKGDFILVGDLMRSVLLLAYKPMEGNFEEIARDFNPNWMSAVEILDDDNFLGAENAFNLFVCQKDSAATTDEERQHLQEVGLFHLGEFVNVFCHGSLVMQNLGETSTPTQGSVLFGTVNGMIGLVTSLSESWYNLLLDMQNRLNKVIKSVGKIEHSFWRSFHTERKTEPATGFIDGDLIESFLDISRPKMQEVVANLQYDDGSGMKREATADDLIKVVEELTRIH

IC50 [1, 3] [nM]	Dmax at 0.316 µM [2] [%]	Structure (SMILES)	IC50 ([1]; MV4-11, 44 h) [nM]
< 100	> 75	O=C1CCC(N2Cc3c(cccc3N(CCC3CC3)[C@H]3CC[C@H](NC4COC4)CC3)C2=O)C(=O)N1 (stereo partly shown) [Compound 517, 3-(4-((2-cyclopropylethyl)((1r,4r)-4-(oxetan-3-ylamino)cyclohexyl)amino)-1-oxoisoindolin-2-yl)piperidine-2,6-dione]	–
100 to 1000	> 75	NCC(F)(F)CCN(CCC1CC1)c1cccc2c1CN(C1CCC(=O)NC1=O)C2=O (stereo not shown) [Compound 518, 3-(4-((4-amino-3,3-difluorobutyl)(2-cyclopropylethyl)amino)-1-oxoisoindolin-2-yl)piperidine-2,6-dione]	–
< 100	> 75	N[C@@H]1CC[C@@H](N(CCC2CC2)c2cccc3c2CN(C2CCC(=O)NC2=O)C3=O)C[C@H]1F (stereo partly drawn) [Compound 521, 3-(4-(((1R,3R,4R)-4-amino-3-fluorocyclohexyl)(2-cyclopropylethyl)amino)-1-oxoisoindolin-2-yl)piperidine-2,6-dione; formic acid]	–
< 100	> 75	NC[C@H]1CC[C@@H](N(CCC2CC2)c2cccc3c2CN(C2CCC(=O)NC2=O)C3=O)CO1 (stereo partly drawn) [Compound 522, 3-(4-{[(3R,6R)-6-(aminomethyl)oxan-3-yl](2-cyclopropylethyl)amino}-1-oxo-3H-isoindol-2-yl)piperidine-2,6-dione]	–
100 to 1000	50 to 75	NC[C@]1(O)CC[C@H](N(CCC2CC2)c2cccc3c2CN(C2CCC(=O)NC2=O)C3=O)CC1 (stereo partly shown) [Compound 523, 3-(4-(((1r,4r)-4-(aminomethyl)-4-hydroxycyclohexyl)(2-cyclopropylethyl)amino)-1-oxoisoindolin-2-yl)piperidine-2,6-dione]	–
> 1000	< 50	NC[C@]1(O)CC[C@H](N(CCCC(F)(F)F)c2cccc3c2CN(C2CCC(=O)NC2=O)C3=O)CC1 (stereo partly shown) [Compound 530, 3-(4-(((1r,4r)-4-(aminomethyl)-4-hydroxycyclohexyl)(4,4,4-trifluorobutyl)amino)-1-oxoisoindolin-2-yl)piperidine-2,6-dione]	–
< 100	> 75	O=C1CCC(N2Cc3c(cccc3N(CC3CC3)[C@H]3CC[C@H](NC4CC(F)(F)C4)CC3)C2=O)C(=O)N1 (stereo partly shown) [Compound 532, 3-(4-((cyclopropylmethyl)((lr,4r)-4-((3,3-difluorocyclobutyl)amino)cyclohexyl)amino)-1-oxoisoindolin-2-yl)piperidine-2,6-dione]	–
< 100	> 75	O=C1CCC(N2Cc3c(cccc3N(CC3CC3)[C@H]3CC[C@H](NCCC(F)(F)F)CC3)C2=O)C(=O)N1 (stereo partly shown) [Compound 533, 3-(4-((cyclopropylmethyl)((1r,4r)-4-((3,3,3-trifluoropropyl)amino)cyclohexyl)amino)-1-oxoisoindolin-2-yl)piperidine-2,6-dione]	–
< 100	> 75	O=C1CCC(N2Cc3c(cccc3N(CC3CC3)[C@H]3CC[C@H](NC4COC4)CC3)C2=O)C(=O)N1 (stereo partly shown) [Compound 534, 3-(4-((cyclopropylmethyl)((1r,4r)-4-(oxetan-3-ylamino)cyclohexyl)amino)-1-oxoisoindolin-2-yl)piperidine-2,6-dione]	–
< 100	50 to 75	N[C@@H]1CC[C@@H](N(CC2CC2)c2cccc3c2CN(C2CCC(=O)NC2=O)C3=O)C[C@H]1F (stereo partly drawn) [Compound 535, 3-(4-(((1R,3R,4R)-4-amino-3-fluorocyclohexyl)(cyclopropylmethyl)amino)-1-oxoisoindolin-2-yl)piperidine-2,6-dione; formic acid]	–
100 to 1000	< 50	NC[C@]1(O)CC[C@H](N(CC2CC2)c2cccc3c2CN(C2CCC(=O)NC2=O)C3=O)CC1 (stereo partly shown) [Compound 536, 3-(4-(((1r,4r)-4-(aminomethyl)-4-hydroxycyclohexyl)(cyclopropylmethyl)amino)-1-oxoisoindolin-2-yl)piperidine-2,6-dione]	–
100 to 1000	50 to 75	O=C1CCC(N2Cc3c(cccc3N(CCC3CC3)[C@H]3CC[C@H](NCC(F)F)CC3)C2=O)C(=O)N1 (stereo partly shown) [Compound 539, 3-{4-[(2-cyclopropylethyl)[(1s,4s)-4-[(2,2-difluoroethyl)amino]cyclohexyl]amino]-1-oxo-3H-isoindol-2-yl}piperidine-2,6-dione]	–
< 100	> 75	O=C1CCC(N2Cc3c(cccc3N(CCC3CC3)[C@H]3CC[C@@H](NCC(F)F)CC3)C2=O)C(=O)N1 (stereo partly shown) [Compound 539A, 3-{4-[(2-cyclopropylethyl)[(1r,4r)-4-[(2,2-difluoroethyl)amino]cyclohexyl]amino]-1-oxo-3H-isoindol-2-yl}piperidine-2,6-dione]	–
< 100	> 75	COC(C)(C)CN[C@H]1CC[C@H](N(CCC2CC2)c2cccc3c2CN(C2CCC(=O)NC2=O)C3=O)CC1 (stereo partly shown) [Compound 541, 3-(4-((2-cyclopropylethyl)((1r,4r)-4-((2-methoxy-2-methylpropyl)amino)cyclohexyl)amino)-1-oxoisoindolin-2-yl)piperidine-2,6-dione]	–
100 to 1000	50 to 75	COC(C)(C)CN[C@H]1CC[C@@H](N(CCC2CC2)c2cccc3c2CN(C2CCC(=O)NC2=O)C3=O)CC1 (stereo partly shown) [Compound 541A, 3-(4-((2-cyclopropylethyl)((1s,4s)-4-((2-methoxy-2-methylpropyl)amino)cyclohexyl)amino)-1-oxoisoindolin-2-yl)piperidine-2,6-dione]	–
< 100	> 75	COCCN[C@H]1CC[C@H](N(CCC2CC2)c2cccc3c2CN(C2CCC(=O)NC2=O)C3=O)CC1 (stereo partly shown) [Compound 542, 3-{4-[(2-cyclopropylethyl)[(1r,4r)-4-[(2-methoxyethyl)amino]cyclohexyl]amino]-1-oxo-3H-isoindol-2-yl}piperidine-2,6-dione]	–
< 100	> 75	N#CCCCN[C@H]1CC[C@H](N(CCC2CC2)c2cccc3c2CN(C2CCC(=O)NC2=O)C3=O)CC1 (stereo partly shown) [Compound 543, 4-{[(1r,4r)-4-[(2-cyclopropylethyl)[2-(2,6-dioxopiperidin-3-yl)-1-oxo-3H-isoindol-4-yl]amino]cyclohexyl]amino}butanenitrile]	–
< 100	> 75	O=C1CCC(N2Cc3c(cccc3N(CCC3CC3)[C@H]3CC[C@H](NCC(=O)N4CCC4)CC3)C2=O)C(=O)N1 (stereo partly shown) [Compound 546, 3-{4-[(2-cyclopropylethyl)[(1r,4r)-4-{[2-(azetidin-1-yl)-2-oxoethyl]amino}cyclohexyl]amino]-1-oxo-3H-isoindol-2-yl}piperidine-2,6 dione]	–

Structure (SMILES)	IC50 [1, 3] [nM]	Dmax at 0.316 µM [2] [%]	IC50 ([1]; MV4-11, 44 h) [nM]
NCC(CCN(CCC1CC1)c1cccc2c1CN(C1CCC(=O)NC1=O)C2=O)C(F)(F)F (stereo not shown) [Compound 519, 3-(4-{[4-amino-3-(trifluoromethyl)butyl](2-cyclopropylethyl)amino}-1-oxo-3H-isoindol-2-yl)piperidine-2,6-dione]	–	50 to 75	100 to 1000
O=C1CCC(N2Cc3c(cccc3N(CCC3CC3)[C@H]3CC[C@H](NC(CF)CF)CC3)C2=O)C(=O)N1 (stereo partly shown) [Compound 540, 3-{4-[(2-cyclopropylethyl)[(1r,4r)-4-[(1,3-difluoropropan-2-yl)amino]cyclohexyl]amino]-1-oxo-3H-isoindol-2-yl}piperidine-2,6-dione]	–	50 to 75	100 to 1000
